{
  "source": "patent US20090143419A1",
  "about": "“METHODS AND COMPOSITIONS FOR CONTROLLING ECTOPARASITES” (HATCHTECH PTY LTD, priority 2005, published 2009)",
  "key": {"[1]": {"tested_on": "Plutella xylostella eggs (Waite strain)", "assay": "Effect of added metal ions (FeSO4) on inhibition of Plutella xylostella egg hatching", "format": "in vivo", "details": "Table 18", "procedure": "Within 24 hours of collection the following experimental design was chosen. Batches of eggs were exposed to either 10 mM 6,6′-dimethyl-2,2′-dipyridyl or solvent only (methanol) for 2 seconds. All batches of eggs were allowed to air dry for 20 minutes at room temperature. The eggs were then given a 2 second exposure to FeSO4 at either 10, 5 or 1 mM, air dried and put in the incubator at 24° C. and allowed to hatch over the next 6 days. In addition, a positive control of 10 mM 6,6′-dimethyl-2,2′-dipyridyl was set up in which eggs were exposed to this compound for 2 seconds, air dried and placed in the incubator.\nWithin 24 hours of collection the following experimental design was chosen. Batches of eggs were exposed to 10 mM 5,5′dimethyl-2,2′-dipyridyl or solvent only (methanol) for 2 seconds. All batches of eggs were allowed to air dry for 20 minutes at room temperature. The eggs were then given a 2 second exposure to FeSO4 at 10, 5 or 1 mM, air dried and put in an incubator at 24° C. and allowed to hatch over the next 6 days. In addition, a positive control of 10 mM, 5,5′-dimethyl-2,2′-dipyridyl was set up in which eggs were exposed to this compound for 2 seconds, air dried and placed in the incubator."}, "[2]": {"tested_on": "Plutella xylostella eggs (Waite strain)", "assay": "Egg hatching of Plutella xylostella", "details": "for % Inhibition: relative to controls", "experimental": "The egg masses were then placed in a humid box at 25 degrees until egg hatch. Control eggs were exposed to absolute methanol as described above. At day 6 post laying the eggs were assessed from the different treatments and the percentage of egg hatch determined relative to the control as shown in Table 9.\nBatches of Plutella eggs that were laid on either fine cloth or parafilm were dipped in a specific inhibitor solution for between 2-10 seconds, the excess solution was drained by blotting with dry tissue paper. The egg masses were then placed in a humid box at 25 degrees until egg hatch. Control eggs were exposed to absolute methanol as described above or not treated. At day 6 post laying the eggs were assessed from the different treatments and the percentage of egg hatch determined relative to the controls as shown in Tables 10 and 11.\nBatches of Plutella eggs that were laid on fine cloth were dipped in a specific inhibitor solution for approximately 2 seconds, the excess solution was drained by blotting with dry tissue paper. The egg masses were then placed in a humid box at 25 degrees until egg hatch. Control eggs were exposed to absolute methanol as described above or not treated. At day 6 post laying the eggs were assessed from the different treatments and the percentage of egg hatch determined relative to the control as shown in Table 12.\nThe egg masses were then placed in a humid box at 25 degrees until egg hatch. Control eggs were exposed to absolute ethanol as described above. On day 6 post laying the eggs were assessed from the different treatments and the percentage of egg hatch determined relative to the control."}, "B. ovis eggs": {"tested_on": "B. ovis eggs", "assay": "Egg hatching in Bovicola ovis", "format": "in vivo", "details": "10 mM, 10 eggs per replicate", "procedure": "B. ovis eggs were collected from the wool of sheep that were infested with this parasite. The eggs were collected using forceps and with the aid of a dissecting microscope and placed in 24 well tissue culture plates in duplicate lots of 10 eggs per replicate. The eggs were then exposed to either methanol alone (solvent control) or the test compounds for either 10 minutes or 1 minute or left as untreated controls before being removed from the wells and placed into individual glass vials containing a diet at the base of the tube. The tubes were placed in plastic containers containing a salt solution (to keep humidity constant at 68%) and the containers maintained at a temperature 32° C. The eggs were monitored for hatching over the following 12 days and % hatch inhibition determined in comparison to the controls."}, "lice eggs": {"tested_on": "lice eggs", "assay": "Time-course in vitro lice egg hatching assay", "format": "in vivo, clothing lice (Pediculus humanus humanus)", "details": "10 mM"}, "[3]": {"tested_on": "Helicoverpa armigera eggs (Tatura×Toowoomba strains)", "assay": "Egg hatching of Helicoverpa armigera", "details": "Table 15; 10 mM", "experimental": "Several hundred Helicoverpa armigera eggs (Tatura×Toowoomba strains) were collected, that had been laid on fine mesh cloth over a 24 hour period.\nBatches of Helicoverpa eggs were exposed to a specific inhibitor solution for between 2-10 seconds the excess solution drained by blotting with dry tissue paper. The egg masses were then placed in a humid box at 25 degrees until egg hatch. Control eggs were exposed to absolute methanol as described above."}, "[4]": {"details": "10 mM inhibitor alone, (+ve) control"}, "[5]": {"details": "10 mM inhibitor followed by 2 second exposure to 1 mM FeSO4"}, "[6]": {"details": "10 mM inhibitor followed by 2 second exposure to 5 mM FeSO4"}, "[7]": {"details": "10 mM inhibitor followed by 2 second exposure to 10 mM FeSO4"}, "[8]": {"details": "10 mM inhibitor followed by 2 second exposure to MEOH"}, "[9]": {"details": "Table 10, 1 mM, eggs laid on cloth"}, "[10]": {"details": "Table 10, 10 mM, eggs laid on cloth"}, "[11]": {"details": "Table 11, 1 mM, eggs laid on parafilm"}, "[12]": {"details": "Table 11, 10 mM, eggs laid on parafilm"}, "[13]": {"details": "Table 12, 0.01 mM, cloth, dipped approximately 2 seconds"}, "[14]": {"details": "Table 12, 0.1 mM, cloth, dipped approximately 2 seconds"}, "[15]": {"details": "Table 12, 1 mM, cloth, dipped approximately 2 seconds"}, "[16]": {"details": "Table 12, 10 mM, cloth, dipped approximately 2 seconds"}, "[17]": {"details": "Table 13, 0.1 mM, cloth, dipped approximately 2 seconds"}, "[18]": {"details": "Table 13, 1 mM, cloth, dipped approximately 2 seconds"}},
  "data": [
    {"smiles": "Cc1ccc(-c2ccc(C)cn2)nc1", "note": "[5,5′-dimethyl-2,2′-dipyridyl]", "values": [
      {"measurement": "% Inhibition", "setting": "[1]; [4]", "result": 100, "unit": "%"},
      {"measurement": "Number hatched", "setting": "[1]; [4]", "result": 0},
      {"measurement": "Number unhatched", "setting": "[1]; [4]", "result": 38},
      {"measurement": "Number hatched", "setting": "[1]; [5]", "result": 39},
      {"measurement": "Number unhatched", "setting": "[1]; [5]", "result": 0},
      {"measurement": "% Inhibition", "setting": "[1]; 10 mM inhibitor followed by 2 second exposure to 1 mM FeSO4, relative to the FeSO4 only controls", "result": 0, "unit": "%"},
      {"measurement": "Number hatched", "setting": "[1]; [6]", "result": 25},
      {"measurement": "Number unhatched", "setting": "[1]; [6]", "result": 0},
      {"measurement": "% Inhibition", "setting": "[1]; 10 mM inhibitor followed by 2 second exposure to 5 mM FeSO4, relative to the FeSO4 only controls", "result": 0, "unit": "%"},
      {"measurement": "Number hatched", "setting": "[1]; [7]", "result": 23},
      {"measurement": "Number unhatched", "setting": "[1]; [7]", "result": 2},
      {"measurement": "% Inhibition", "setting": "[1]; 10 mM inhibitor followed by 2 second exposure to 10 mM FeSO4, relative to the FeSO4 only controls", "result": 8, "unit": "%"},
      {"measurement": "Number hatched", "setting": "[1]; [8]", "result": 16},
      {"measurement": "Number unhatched", "setting": "[1]; [8]", "result": 19},
      {"measurement": "Number hatched", "setting": "[2]; [9]", "result": 5},
      {"measurement": "Number unhatched", "setting": "[2]; [9]", "result": 22},
      {"measurement": "% Inhibition", "setting": "[2]; [9]", "result": 78, "unit": "%"},
      {"measurement": "Number hatched", "setting": "[2]; [10]", "result": 0},
      {"measurement": "Number unhatched", "setting": "[2]; [10]", "result": 21},
      {"measurement": "% Inhibition", "setting": "[2]; [10]", "result": 100, "unit": "%"},
      {"measurement": "Number hatched", "setting": "[2]; [11]", "result": 18},
      {"measurement": "Number unhatched", "setting": "[2]; [11]", "result": 151},
      {"measurement": "% Inhibition", "setting": "[2]; [11]", "result": 88, "unit": "%"},
      {"measurement": "Number hatched", "setting": "[2]; [12]", "result": 0},
      {"measurement": "Number unhatched", "setting": "[2]; [12]", "result": 142},
      {"measurement": "% Inhibition", "setting": "[2]; [12]", "result": 100, "unit": "%"},
      {"measurement": "Number hatched", "setting": "[2]; [13]", "result": 37},
      {"measurement": "Number unhatched", "setting": "[2]; [13]", "result": 3},
      {"measurement": "Number hatched", "setting": "[2]; [14]", "result": 22},
      {"measurement": "Number unhatched", "setting": "[2]; [14]", "result": 16},
      {"measurement": "Number hatched", "setting": "[2]; [15]", "result": 1},
      {"measurement": "Number unhatched", "setting": "[2]; [15]", "result": 45},
      {"measurement": "Number hatched", "setting": "[2]; [16]", "result": 0},
      {"measurement": "Number unhatched", "setting": "[2]; [16]", "result": 68},
      {"measurement": "Number hatched", "setting": "[2]; [17]", "result": 32},
      {"measurement": "Number unhatched", "setting": "[2]; [17]", "result": 52},
      {"measurement": "Number hatched", "setting": "[2]; [18]", "result": 2},
      {"measurement": "Number unhatched", "setting": "[2]; [18]", "result": 118},
      {"measurement": "Number unhatched", "setting": "B. ovis eggs; 1 minute exposure", "result": 10},
      {"measurement": "Number unhatched", "setting": "B. ovis eggs; 10 minute exposure", "result": 10},
      {"measurement": "% Inhibition of lice egg hatching (maximum over the time-course)", "setting": "lice eggs", "result": 100, "unit": "%"},
      {"measurement": "Number hatched", "setting": "[3]", "result": 0},
      {"measurement": "Number unhatched", "setting": "[3]", "result": 42}
    ]}
  ]
}
